Molecular target: PCNA (Homo sapiens, UniProt P12004)
Assay: Fixation of live cells labeled with the cell-permeable PIP
Format: cell-based
Settings: PCNA expressing cells labeled live, then 3.7% formaldehyde

Chain of PCNA (P12004 whole entry): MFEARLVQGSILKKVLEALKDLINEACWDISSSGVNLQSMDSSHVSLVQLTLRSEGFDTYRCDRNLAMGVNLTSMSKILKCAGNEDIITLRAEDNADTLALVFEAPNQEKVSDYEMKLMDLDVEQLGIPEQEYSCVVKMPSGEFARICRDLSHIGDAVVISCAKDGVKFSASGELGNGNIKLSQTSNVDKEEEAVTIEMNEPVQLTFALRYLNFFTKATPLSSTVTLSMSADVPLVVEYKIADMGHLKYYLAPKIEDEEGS

## RRRQRRKKRG-C C-SAVLQKKITDYFHPKKG-EDA-TAMRA (disulfide) [TAT(-SS-)PL-R]
  Labeling of repair sites after fixation of live labeled cells: still marks repair sites

From publication PMC4615156 (Nucleus, 2014)
